Numbered stars: 1 amine (or outer) side, 2 acyl side, 3 side chain; on linkers, the order of the positions; unused ones are H or OH. Bridge positions count the residues as written; N and C are the ends. Square brackets hold non-standard residues; d marks the D form. Peptide text beside a SMILES is read from it. * marks the point of attachment. Trp(βS-Me,7-OMe) = COc1cccc2c([C@H](C)[C@H](N)C(=O)O)c[nH]c12; X24 = O=C(O)c1ccc([C@@H](O)[C@H](N[*:1])C(=O)[*:2])cc1; Morpholine(3S-CO,6,6-Me2) = CC1(C)CN[C@H](C(=O)O)CO1; Trp(7-CN) = N#Cc1cccc2c(C[C@H](N)C(=O)O)c[nH]c12; Trp(7-Cl) = N[C@@H](Cc1c[nH]c2c(Cl)cccc12)C(=O)O; Phe(3-CONH2) = NC(=O)c1cccc(C[C@H](N)C(=O)O)c1; Phe(4-CONH2) = NC(=O)c1ccc(C[C@H](N)C(=O)O)cc1; Phe(4-COOH) = N[C@@H](Cc1ccc(C(=O)O)cc1)C(=O)O; 4Pal(3S-Me) = C[C@@H](c1ccncc1)[C@H](N)C(=O)O; Trp(7-aza) = N[C@@H](Cc1c[nH]c2ncccc12)C(=O)O; dPro(4S-NH2) = N[C@@H]1CN[C@@H](C(=O)O)C1; Pip(5R-OH) = O=C(O)[C@@H]1CC[C@@H](O)CN1; X1 = O=C([C@@H]1CC[C@H](N[*:1])C1)[*:2]; Isoxazole(3-carbonyl) = O=C(c1ccon1)*; Pip(4-aza) = O=C(O)[C@@H]1CNCCN1; hPhe = N[C@@H](CCc1ccccc1)C(=O)O; 4Pal = N[C@@H](Cc1ccncc1)C(=O)O; NMeE = CN[C@@H](CCC(=O)O)C(=O)O; dHyp = O=C(O)[C@H]1C[C@H](O)CN1; X7 = CC[C@@H](C(=O)[*:1])[*:2]; aThr = C[C@H](O)[C@H](N)C(=O)O; Ahp(2) = CCCCC[C@H](N)C(=O)O; αMeS = C[C@](N)(CO)C(=O)O; Carboxymethyl = O=C(O)C*; Nle = CCCC[C@H](N)C(=O)O; Dab = NCC[C@H](N)C(=O)O; Sar = CNCC(=O)O
Assays:
human TNFR2 ECD protein = biological target: T1, human TNFR2 ECD protein (Homo sapiens, UniProt P20333); test: SPR off-target binding (selectivity) to human TNFR2 ECD
T1 construct: HRV 3C protease cleavage site (C); 6His (C, cleaved yes); made in house; host or cells: Sf21 insect cells (baculovirus), secreted
T1 sequence (P20333 23-257): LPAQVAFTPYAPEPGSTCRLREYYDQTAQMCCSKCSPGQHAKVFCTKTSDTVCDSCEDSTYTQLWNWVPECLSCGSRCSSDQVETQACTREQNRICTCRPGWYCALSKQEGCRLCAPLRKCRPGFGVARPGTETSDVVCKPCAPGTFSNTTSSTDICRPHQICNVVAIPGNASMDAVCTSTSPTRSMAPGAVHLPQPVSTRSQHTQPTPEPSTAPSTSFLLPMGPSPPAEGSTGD
Outline: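 Peptides are tested against captured biotin-tagged human TNFR1 ECD, with parallel TNFR2 ECD binding to check selectivity. Buffer: 10 mM HEPES pH 7.4, 150 mM NaCl, 3 mM EDTA, 0.05% P20, 2% DMSO.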

[1] = biological target: T2, TNFα-induced NF-κB signal transduction pathway (TNFR1 signaling) in THP-1 cells (Homo sapiens, UniProt P19438); test: THP-1 Lucia NF-κB reporter cell assay, inhibition of TNFα-induced NF-κB signaling; assay type: cell-based; details: THP-1 NF-κB Lucia reporter cells, 10 ng/mL TNFα, 16-18 h, secreted luciferase; read-out: THP-1 IC50
T2 sequence (P19438 30-455): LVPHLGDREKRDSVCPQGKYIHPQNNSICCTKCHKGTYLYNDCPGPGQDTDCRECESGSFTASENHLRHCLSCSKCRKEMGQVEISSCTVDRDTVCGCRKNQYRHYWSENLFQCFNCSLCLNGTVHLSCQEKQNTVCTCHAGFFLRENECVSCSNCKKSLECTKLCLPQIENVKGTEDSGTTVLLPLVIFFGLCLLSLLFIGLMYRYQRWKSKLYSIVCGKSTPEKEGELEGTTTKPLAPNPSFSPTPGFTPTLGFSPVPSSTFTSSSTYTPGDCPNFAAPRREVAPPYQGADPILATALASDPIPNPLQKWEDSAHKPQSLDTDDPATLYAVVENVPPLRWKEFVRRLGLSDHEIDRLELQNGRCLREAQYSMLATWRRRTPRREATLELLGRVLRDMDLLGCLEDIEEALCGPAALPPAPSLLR
Outline: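 Inhibition of TNFR1-driven NF-κB activation was measured as luminescence of secreted reporter luciferase following overnight (16-18 h) stimulation with 10 ng/mL TNFα.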

Row | SMILES | Kd (human TNFR2 ECD protein) | IC50 [1]
1 | CCCC[C@@H]1NC(=O)[C@@H]2CC[C@@H](C2)NC(=O)[C@H]([C@@H](C)c2c[nH]c3c(OC)cccc23)NC(=O)CN(C)C(=O)[C@H](Cc2ccc(O)cc2)NC(=O)[C@H](Cc2ccc(C(=O)O)cc2)NC(=O)[C@](C)(CO)NC(=O)[C@H](Cc2c[nH]c3c(Cl)cccc23)NC(=O)[C@H](Cc2ccncc2)NC(=O)[C@H](CC(N)=O)NC(=O)[C@H]2C[C@H](N)CN2C(=O)[C@H](Cc2c[nH]c3ccccc23)NC(=O)[C@@H]2CNCCN2C(=O)[C@H](Cc2ccncc2)NC1=O [SEQ ID NO. 161] (cyclo([4Pal][Trp(7-Cl)][αMeS][Phe(4-COOH)]Y[Sar][Trp(βS-Me,7-OMe)][X1][Nle][4Pal][Pip(4-aza)]W[dPro(4S-NH2)]N)) | > 1000 nM | 1.3 nM
2 | CCCC[C@@H]1NC(=O)[C@@H]2CC[C@@H](C2)NC(=O)[C@H]([C@@H](C)c2c[nH]c3c(OC)cccc23)NC(=O)CN(C)C(=O)[C@H](Cc2ccc(O)cc2)NC(=O)[C@H](Cc2ccc(C(N)=O)cc2)NC(=O)[C@](C)(CO)NC(=O)[C@H](Cc2c[nH]c3c(Cl)cccc23)NC(=O)[C@H](Cc2ccncc2)NC(=O)[C@H](CC(N)=O)NC(=O)[C@H](CCC(=O)O)N(C)C(=O)[C@H](Cc2c[nH]c3ccccc23)NC(=O)[C@@H]2CC[C@@H](O)CN2C(=O)[C@H](Cc2ccncc2)NC1=O [SEQ ID NO. 163] (cyclo([4Pal][Trp(7-Cl)][αMeS][Phe(4-CONH2)]Y[Sar][Trp(βS-Me,7-OMe)][X1][Nle][4Pal][Pip(5R-OH)]W[NMeE]N)) | > 1000 nM | 0.7 nM
3 | CCCC[C@@H]1NC(=O)[C@H](CC)SC[C@@H](C(N)=O)NC(=O)[C@H]([C@@H](C)c2c[nH]c3c(OC)cccc23)NC(=O)CN(C)C(=O)[C@H](Cc2ccc(O)cc2)NC(=O)[C@H](Cc2ccc(C(N)=O)cc2)NC(=O)[C@](C)(CO)NC(=O)[C@H](Cc2c[nH]c3c(Cl)cccc23)NC(=O)[C@H](Cc2ccc(C(=O)O)cc2)NC(=O)[C@H](CC(N)=O)NC(=O)[C@H](CCC(=O)O)N(C)C(=O)[C@H](Cc2c[nH]c3ncccc23)NC(=O)[C@@H]2CC[C@@H](O)CN2C(=O)[C@H](Cc2ccncc2)NC1=O [SEQ ID NO. 168] ([Nle][4Pal][Pip(5R-OH)][Trp(7-aza)][NMeE]N[Phe(4-COOH)][Trp(7-Cl)][αMeS][Phe(4-CONH2)]Y[Sar][Trp(βS-Me,7-OMe)]C-NH2; linker N-14 via X7) | > 1000 nM | 1.2 nM
4 | COc1cccc2c([C@H](C)[C@@H]3NC(=O)CN(C)C(=O)[C@H](Cc4cccc(C(N)=O)c4)NC(=O)[C@H](Cc4ccc(C(N)=O)cc4)NC(=O)[C@](C)(CO)NC(=O)[C@H](Cc4c[nH]c5c(Cl)cccc45)NC(=O)[C@H](Cc4ccncc4)NC(=O)[C@H](CC(N)=O)NC(=O)[C@H]4C[C@H](O)CN4C(=O)[C@H](Cc4c[nH]c5ccccc45)NC(=O)[C@@H]4CC[C@@H](O)CN4C(=O)[C@H](Cc4ccncc4)NC(=O)[C@H](CCNC(=O)c4ccon4)NC(=O)[C@@H]4CC[C@@H](C4)NC3=O)c[nH]c12 [SEQ ID NO. 169] (cyclo([4Pal][Trp(7-Cl)][αMeS][Phe(4-CONH2)][Phe(3-CONH2)][Sar][Trp(βS-Me,7-OMe)][X1][Dab](Isoxazole(3-carbonyl))[4Pal][Pip(5R-OH)]W[dHyp]N)) | > 1000 nM | 0.6 nM
5 | CCCC[C@@H]1NC(=O)CSC[C@@H](C(N)=O)NC(=O)[C@H]([C@@H](C)c2c[nH]c3c(OC)cccc23)NC(=O)CN(C)C(=O)[C@H](Cc2ccc(O)cc2)NC(=O)[C@H](Cc2ccc(C(=O)O)cc2)NC(=O)[C@](C)(CO)NC(=O)[C@H](Cc2c[nH]c3c(Cl)cccc23)NC(=O)[C@H](Cc2ccncc2)NC(=O)[C@H](CC(N)=O)NC(=O)[C@H](CCC(=O)O)N(C)C(=O)[C@H](Cc2c[nH]c3ncccc23)NC(=O)[C@@H]2CNCCN2C(=O)[C@H](CCc2ccccc2)NC1=O [SEQ ID NO. 172] ({CH2CO}-[Nle][hPhe][Pip(4-aza)][Trp(7-aza)][NMeE]N[4Pal][Trp(7-Cl)][αMeS][Phe(4-COOH)]Y[Sar][Trp(βS-Me,7-OMe)]C-NH2; thioether N-14) | > 1000 nM | 3.9 nM
6 | CCCCC[C@@H]1NC(=O)[C@@H]2CC[C@@H](C2)NC(=O)[C@H]([C@@H](C)c2c[nH]c3c(OC)cccc23)NC(=O)CN(C)C(=O)[C@H](Cc2cccc(C(N)=O)c2)NC(=O)[C@H](Cc2ccc(C(N)=O)cc2)NC(=O)[C@](C)(CO)NC(=O)[C@H](Cc2c[nH]c3c(C#N)cccc23)NC(=O)[C@H](Cc2ccncc2)NC(=O)[C@H](CC(N)=O)NC(=O)[C@H]2C[C@H](O)CN2C(=O)[C@H](Cc2c[nH]c3ccccc23)NC(=O)[C@@H]2CNCCN2C(=O)[C@H](Cc2ccncc2)NC1=O [SEQ ID NO. 174] (cyclo([4Pal][Trp(7-CN)][αMeS][Phe(4-CONH2)][Phe(3-CONH2)][Sar][Trp(βS-Me,7-OMe)][X1][Ahp(2)][4Pal][Pip(4-aza)]W[dHyp]N)) | > 1000 nM | 0.7 nM
7 | CCCC[C@@H]1NC(=O)CSC[C@@H](C(N)=O)NC(=O)[C@H]([C@@H](C)c2c[nH]c3c(OC)cccc23)NC(=O)CN(C)C(=O)[C@H](Cc2ccc(O)cc2)NC(=O)[C@H](Cc2ccc(C(=O)O)cc2)NC(=O)[C@](C)(CO)NC(=O)[C@H](Cc2c[nH]c3c(Cl)cccc23)NC(=O)[C@H](Cc2ccc(OCC(=O)O)cc2)NC(=O)[C@H](CC(N)=O)NC(=O)[C@H](CCC(=O)O)N(C)C(=O)[C@H](Cc2c[nH]c3ccccc23)NC(=O)[C@@H]2COC(C)(C)CN2C(=O)[C@H](Cc2ccncc2)NC1=O [SEQ ID NO. 179] ({CH2CO}-[Nle][4Pal][Morpholine(3S-CO,6,6-Me2)]W[NMeE]NY(Carboxymethyl)[Trp(7-Cl)][αMeS][Phe(4-COOH)]Y[Sar][Trp(βS-Me,7-OMe)]C-NH2; thioether N-14) | > 1000 nM | 2.4 nM
8 | CCCC[C@@H]1NC(=O)CSC[C@@H](C(N)=O)NC(=O)[C@H]([C@@H](C)c2c[nH]c3c(OC)cccc23)NC(=O)CN(C)C(=O)[C@H](Cc2ccc(O)cc2)NC(=O)[C@H](Cc2ccc(C(=O)O)cc2)NC(=O)[C@](C)(CO)NC(=O)[C@H](Cc2c[nH]c3c(Cl)cccc23)NC(=O)[C@H](Cc2ccncc2)NC(=O)[C@H](CC(N)=O)NC(=O)[C@H](CCC(=O)O)N(C)C(=O)[C@H](Cc2c[nH]c3ncccc23)NC(=O)[C@H](CO)NC(=O)[C@H]([C@@H](C)c2ccncc2)NC1=O [SEQ ID NO. 180] ({CH2CO}-[Nle][4Pal(3S-Me)]S[Trp(7-aza)][NMeE]N[4Pal][Trp(7-Cl)][αMeS][Phe(4-COOH)]Y[Sar][Trp(βS-Me,7-OMe)]C-NH2; thioether N-14) | > 1000 nM | 2 nM
9 | CCCC[C@@H]1NC(=O)[C@@H]2CC[C@@H](C2)NC(=O)[C@H]([C@@H](C)c2c[nH]c3c(OC)cccc23)NC(=O)CN(C)C(=O)[C@H](Cc2ccc(C(=O)O)cc2)NC(=O)[C@H](Cc2ccc(C(N)=O)cc2)NC(=O)[C@](C)(CO)NC(=O)[C@H](Cc2c[nH]c3c(Cl)cccc23)NC(=O)[C@H](Cc2ccncc2)NC(=O)[C@H]([C@H](C)O)NC(=O)[C@H]2C[C@H](O)CN2C(=O)[C@H](Cc2c[nH]c3ccccc23)NC(=O)[C@@H]2CC[C@@H](O)CN2C(=O)[C@H](Cc2ccncc2)NC1=O [SEQ ID NO. 187] (cyclo([4Pal][Trp(7-Cl)][αMeS][Phe(4-CONH2)][Phe(4-COOH)][Sar][Trp(βS-Me,7-OMe)][X1][Nle][4Pal][Pip(5R-OH)]W[dHyp][aThr])) | > 1000 nM | 0.5 nM
10 | CCCC[C@@H]1NC(=O)[C@@H]2CC[C@@H](C2)NC(=O)[C@H]([C@@H](C)c2c[nH]c3c(OC)cccc23)NC(=O)CN(C)C(=O)[C@H]([C@H](O)c2ccc(C(=O)O)cc2)NC(=O)[C@H](Cc2ccc(C(N)=O)cc2)NC(=O)[C@](C)(CO)NC(=O)[C@H](Cc2c[nH]c3c(Cl)cccc23)NC(=O)[C@H](Cc2ccncc2)NC(=O)[C@H](CC(N)=O)NC(=O)[C@H]2C[C@H](O)CN2C(=O)[C@H](Cc2c[nH]c3ccccc23)NC(=O)[C@@H]2CC[C@@H](O)CN2C(=O)[C@H](Cc2ccncc2)NC1=O [SEQ ID NO. 188] (cyclo([4Pal][Trp(7-Cl)][αMeS][Phe(4-CONH2)][X24][Sar][Trp(βS-Me,7-OMe)][X1][Nle][4Pal][Pip(5R-OH)]W[dHyp]N)) | > 1000 nM | 0.8 nM
